Laboratory results: the NIST ThermoML archive (doi:10.1016/j.jct.2006.09.012)
“And” between values parts separate entries of the source, which are not always exact repeats. Identical values can stand only once. ± gives the expanded uncertainty stated by the source.

Details: Gas, Buoyancy - hydrostatic balance with magnetic suspension - two sinkers

[He] [helium]
Details	mass density
273.16 K, 31577 kPa	47.957 ± 0.033 kg/m3 and 47.9575 ± 0.033 kg/m3
273.16 K, 31578 kPa	47.9581 ± 0.033 kg/m3 and 47.9577 ± 0.033 kg/m3
273.16 K, 31775 kPa	48.2167 ± 0.033 kg/m3
273.16 K, 31776 kPa	48.2177 ± 0.033 kg/m3
273.16 K, 31777 kPa	48.2188 ± 0.033 kg/m3
273.16 K, 31778 kPa	48.22 ± 0.033 kg/m3
273.16 K, 31779 kPa	48.2215 ± 0.033 kg/m3
273.16 K, 31780 kPa	48.2235 ± 0.033 kg/m3
273.16 K, 31865 kPa	48.3344 ± 0.031 kg/m3 and 48.3352 ± 0.031 kg/m3
273.16 K, 31866 kPa	48.3358 ± 0.031 kg/m3
273.16 K, 31867 kPa	48.3368 ± 0.031 kg/m3 and 48.3375 ± 0.031 kg/m3
273.16 K, 32210 kPa	48.7873 ± 0.032 kg/m3
273.16 K, 32211 kPa	48.788 ± 0.032 kg/m3
273.16 K, 32212 kPa	48.7903 ± 0.032 kg/m3 and 48.7886 ± 0.032 kg/m3
273.16 K, 32213 kPa	48.7913 ± 0.032 kg/m3
273.16 K, 37198 kPa	55.185 ± 0.041 kg/m3
273.16 K, 37199 kPa	55.1865 ± 0.041 kg/m3
273.16 K, 37200 kPa	55.1874 ± 0.041 kg/m3
273.16 K, 37201 kPa	55.1885 ± 0.041 kg/m3 and 55.1895 ± 0.041 kg/m3
273.16 K, 37514 kPa	55.5816 ± 0.041 kg/m3
273.16 K, 37515 kPa	55.5829 ± 0.041 kg/m3
273.16 K, 37517 kPa	55.5843 ± 0.041 kg/m3
273.16 K, 37518 kPa	55.5858 ± 0.041 kg/m3
273.16 K, 37520 kPa	55.5878 ± 0.041 kg/m3
273.16 K, 37531 kPa	55.6035 ± 0.041 kg/m3
273.16 K, 37536 kPa	55.6095 ± 0.041 kg/m3
273.16 K, 37537 kPa	55.6109 ± 0.041 kg/m3
273.16 K, 37539 kPa	55.6125 ± 0.041 kg/m3
273.16 K, 37540 kPa	55.6136 ± 0.041 kg/m3
273.16 K, 38114 kPa	56.3321 ± 0.042 kg/m3 and 56.3327 ± 0.042 kg/m3
273.16 K, 38115 kPa	56.3338 ± 0.042 kg/m3
273.16 K, 38116 kPa	56.335 ± 0.042 kg/m3 and 56.3346 ± 0.042 kg/m3
293.15 K, 980.1 kPa	1.6025 ± 0.0026 kg/m3
293.15 K, 980.2 kPa	1.6025 ± 0.0026 kg/m3 and 1.6026 ± 0.0026 kg/m3
293.15 K, 1731.6 kPa	2.8204 ± 0.003 kg/m3 and 2.8205 ± 0.003 kg/m3 and 2.8207 ± 0.003 kg/m3
293.15 K, 3908.9 kPa	6.3007 ± 0.0033 kg/m3 [middle of 5 runs]
293.15 K, 4006.9 kPa	6.4542 ± 0.0034 kg/m3
293.15 K, 4007 kPa	6.4541 ± 0.0034 kg/m3 and 6.4543 ± 0.0034 kg/m3 and 6.4542 ± 0.0034 kg/m3
293.15 K, 7058 kPa	11.2086 ± 0.0084 kg/m3
293.15 K, 7058.1 kPa	11.2089 ± 0.0084 kg/m3 and 11.2088 ± 0.0084 kg/m3
293.15 K, 7058.2 kPa	11.2089 ± 0.0084 kg/m3
293.15 K, 7881.3 kPa	12.4696 ± 0.0083 kg/m3
293.15 K, 7881.6 kPa	12.4701 ± 0.0083 kg/m3
293.15 K, 7882.1 kPa	12.4707 ± 0.0083 kg/m3
293.15 K, 7882.6 kPa	12.4715 ± 0.0083 kg/m3
293.15 K, 7883 kPa	12.4722 ± 0.0083 kg/m3
293.15 K, 10034 kPa	15.7199 ± 0.0091 kg/m3
293.15 K, 10035 kPa	15.7202 ± 0.0091 kg/m3 and 15.7205 ± 0.0091 kg/m3
293.15 K, 11762 kPa	18.2837 ± 0.0097 kg/m3 [middle of 5 runs]
293.15 K, 14018 kPa	21.5714 ± 0.011 kg/m3 [middle of 8 runs]
293.15 K, 16004 kPa	24.4152 ± 0.012 kg/m3
293.15 K, 16005 kPa	24.4156 ± 0.012 kg/m3 [middle of 4 runs]
293.15 K, 18018 kPa	27.2473 ± 0.014 kg/m3 and 27.2468 ± 0.014 kg/m3 and 27.2464 ± 0.014 kg/m3
293.15 K, 18019 kPa	27.2479 ± 0.014 kg/m3 [middle of 5 runs]
293.15 K, 19905 kPa	29.8586 ± 0.015 kg/m3 and 29.8588 ± 0.015 kg/m3
293.15 K, 19906 kPa	29.8595 ± 0.015 kg/m3 and 29.8599 ± 0.015 kg/m3 and 29.8592 ± 0.015 kg/m3
293.15 K, 24474 kPa	36.0124 ± 0.02 kg/m3 [middle of 4 runs]
293.15 K, 24475 kPa	36.0141 ± 0.02 kg/m3 and 36.0137 ± 0.02 kg/m3
293.15 K, 24476 kPa	36.0152 ± 0.02 kg/m3
293.15 K, 25777 kPa	37.7285 ± 0.021 kg/m3
293.15 K, 25778 kPa	37.7301 ± 0.021 kg/m3 and 37.7298 ± 0.021 kg/m3 and 37.7293 ± 0.021 kg/m3
293.15 K, 25779 kPa	37.7309 ± 0.021 kg/m3
293.15 K, 29507 kPa	42.5361 ± 0.026 kg/m3
293.15 K, 29508 kPa	42.5375 ± 0.026 kg/m3 and 42.5373 ± 0.026 kg/m3
293.15 K, 29509 kPa	42.5383 ± 0.026 kg/m3
293.15 K, 29510 kPa	42.5393 ± 0.026 kg/m3 and 42.5394 ± 0.026 kg/m3
293.15 K, 29511 kPa	42.5405 ± 0.026 kg/m3
293.15 K, 31846 kPa	45.4829 ± 0.029 kg/m3
293.15 K, 31847 kPa	45.4837 ± 0.029 kg/m3
293.15 K, 31848 kPa	45.4862 ± 0.029 kg/m3 and 45.4845 ± 0.029 kg/m3
293.15 K, 31850 kPa	45.4879 ± 0.029 kg/m3
293.15 K, 38003 kPa	52.9909 ± 0.038 kg/m3
293.15 K, 38004 kPa	52.9921 ± 0.038 kg/m3
293.15 K, 38005 kPa	52.993 ± 0.038 kg/m3
293.15 K, 38006 kPa	52.9944 ± 0.038 kg/m3
293.15 K, 38007 kPa	52.9958 ± 0.038 kg/m3
293.16 K, 10034 kPa	15.7195 ± 0.0091 kg/m3
323.15 K, 1780.1 kPa	2.6324 ± 0.0029 kg/m3 and 2.6323 ± 0.0029 kg/m3 and 2.6322 ± 0.0029 kg/m3
323.15 K, 1780.2 kPa	2.6323 ± 0.0029 kg/m3
323.15 K, 3959.1 kPa	5.7989 ± 0.0032 kg/m3 and 5.7987 ± 0.0032 kg/m3
323.15 K, 7974.3 kPa	11.4834 ± 0.0077 kg/m3 and 11.4836 ± 0.0077 kg/m3
323.15 K, 7974.4 kPa	11.4837 ± 0.0077 kg/m3 and 11.4836 ± 0.0077 kg/m3
323.15 K, 11648 kPa	16.5228 ± 0.0089 kg/m3 [middle of 5 runs]
323.15 K, 15081 kPa	21.0997 ± 0.01 kg/m3
323.15 K, 15082 kPa	21.1007 ± 0.01 kg/m3 and 21.1001 ± 0.01 kg/m3 and 21.1 ± 0.01 kg/m3
323.15 K, 19305 kPa	26.565 ± 0.013 kg/m3 and 26.5643 ± 0.013 kg/m3 and 26.5647 ± 0.013 kg/m3
323.15 K, 19306 kPa	26.5662 ± 0.013 kg/m3 and 26.5653 ± 0.013 kg/m3
323.15 K, 25679 kPa	34.4876 ± 0.019 kg/m3 and 34.4883 ± 0.019 kg/m3
323.15 K, 25680 kPa	34.4886 ± 0.019 kg/m3 and 34.489 ± 0.019 kg/m3 and 34.4895 ± 0.019 kg/m3
323.15 K, 31795 kPa	41.7513 ± 0.025 kg/m3 and 41.752 ± 0.025 kg/m3
323.15 K, 31796 kPa	41.7528 ± 0.025 kg/m3
323.15 K, 31797 kPa	41.7536 ± 0.025 kg/m3 and 41.7543 ± 0.025 kg/m3
323.15 K, 37888 kPa	48.6852 ± 0.033 kg/m3
323.15 K, 37889 kPa	48.6863 ± 0.033 kg/m3
323.15 K, 37890 kPa	48.6876 ± 0.033 kg/m3
323.15 K, 37891 kPa	48.6888 ± 0.033 kg/m3
323.15 K, 37892 kPa	48.6904 ± 0.033 kg/m3
